From patent US12269902B2, “Peptide compounds and peptide conjugates for the treatment of cancer through receptor-mediated chemotherapy” (TRANSFERT PLUS, S.E.C., priority 2015, dated 2025)
pIC50: −log10 of the molar value. Non-standard residues stand in square brackets, D forms with d. Residues, ends and D or L forms follow the SMILES beside them. *: point of attachment. X3 = COc1cccc2c1C(=O)c1c(O)c3c(c(O)c1C2=O)C[C@@](O)(C(=O)COC(=O)CC(C)(C)CC(=O)*)C[C@@H]3O[C@H]1C[C@H](N)[C@H](O)[C@H](C)O1; X2 = COc1cc(/C=C/C(=O)CC(=O)/C=C/c2ccc(OC(=O)CC(C)(C)CC(=O)*)c(OC)c2)ccc1O; Nle = CCCC[C@H](N)C(=O)O

Key:
[1] = test system: ES-2 ovarian cancer cells; test: [3H]-Thymidine incorporation cell proliferation assay, ES-2; assay type: cell-based; settings: ES-2 (Ovary)
Method: (§1) The effect of the Docetaxel-Katana peptide conjugate on various cell line proliferations was evaluated and compared to unconjugated Docetaxel (Table 4). IC50 values obtained for the Docetaxel-Katana peptide conjugate were very similar to those of Docetaxel in the cancer cells tested.
(§2) The phytochemical Curcumin, unconjugated and conjugated, was also tested on cancer cell proliferation (FIG. 28). Breast cancer cells (MDA-MB231) were incubated with increasing concentrations of KBC106 or curcumin. After 72 hrs, thymidine incorporation assay was performed to assess the anti-proliferative properties of both molecules. IC50 values were extracted from the anti-proliferative curves. […] Proliferation assay was also performed using different types of cancer cells (ovarian, breast, skin and colorectal cancer cells). IC50 values were calculated from the anti-proliferation curves. In all cases, the Curcumin conjugate (KBC106) had stronger anti-proliferative activity (9-100 fold) than unconjugated Curcumin, as shown in Table 6 below.
(§3) Cancer cells were cultured in 96-well white plates (Perkin Elmer). They were synchronized for 24 hours in serum-deprived medium. After incubation of cells with unconjugated drugs (docetaxel, cabazitaxel, doxorubicin) or with drug-Katana peptide conjugates for 2 or 3 days, all media was aspirated and cells were pulse-labeled for 4 hours at 37° C./[…]/5% CO2 with media containing 2.5 μCi/mL [methyl-3H] thymidine (Perkin Elmer). Cells were washed, fixed, and dried before addition of scintillation fluid (Microscint 0, Perkin Elmer). After 24 hours, cell-associated tritium was quantified by counting on a plate reader (TopCount, Perkin Elmer). Incorporated [3H] thymidine was plotted for each drug concentration.

[2] = test system: MDA-MB-231 breast cancer cells; test: cells
Method: Breast cancer cells (MDA-MB231) were incubated with increasing concentrations of KBC106 or curcumin. After 72 hrs, thymidine incorporation assay was performed to assess the anti-proliferative properties of both molecules. IC50 values were extracted from the anti-proliferative curves.
as §2, with “curves.” for “curves. In all cases, the Curcumin conjugate (KBC106) had stronger anti-proliferative activity (9-100 fold) than unconjugated Curcumin, as shown in Table 6 below.”
as §3

[3] = test system: SK-MEL-28 skin cancer cells; test: [3H]-Thymidine incorporation cell proliferation assay, SK-MEL-28; assay type: cell-based
Method: as §1, §2, §3

A-375 skin cancer cells = test: [3H]-Thymidine incorporation cell proliferation assay, A-375; assay type: cell-based
Method: as §1, §2, §3

[4] = test system: ES-2 ovarian cancer cells; test: ES-2 ovarian subcutaneous tumors (Doxorubicin, KBB106); assay type: in vivo, mice; settings: Day 14 post-treatment; equivalent dose of Doxorubicin 6 mg/kg/week
Method: 25A. Mice were implanted in the flank with ES-2 ovarian cancer cells. Tumor growth was measured using a caliper. When tumors reached a tumor volume of about 150 mm^3, mice were treated with Doxorubicin or KBB106 at an equivalent dose of Doxorubicin (6 mg/kg/week). 25B. […] 25C.
(§4) The effect of the conjugated and unconjugated Doxorubicin was also evaluated on ovarian subcutaneous tumors. Mice were implanted in the with ES-2 ovarian cancer cells. Tumor growth was measured using a caliper. When tumors reached a tumor volume of about 150 mm^3, mice were treated with Doxorubicin or Katana-Doxorubicin conjugate KBB106 at an equivalent dose of Doxorubicin (6 mg/kg/week).

[5] = test system: HCC-1569 breast cancer cells; test: cells; assay type: cell-based; settings: HCC-1569 (HER2+; Herceptin resistant); Table 6
Method: as §2, §3

[6] = test system: HCC-1954 breast cancer cells; test: cells; assay type: cell-based; settings: HCC-1954 (HER2+; Lapatinib resistant); Table 6
Method: as §2, §3

[7] = test system: HT-29 colorectal cancer cells; test: cells; assay type: cell-based; settings: Table 6
Method: as §2, §3

sortilin = target: T1, sortilin (Homo sapiens, UniProt Q99523); test: Uptake of KBB106 in ovarian cancer cells with reduced sortilin expression; assay type: cell-based; settings: ovarian cancer cells transfected with sortilin siRNA
T1 construct: Ovarian cancer cells were transfected with sortilin siRNA (siSortilin) for 24 hrs and then incubated with KBB106; endogenous in cells
T1 sequence (Q99523 78-831): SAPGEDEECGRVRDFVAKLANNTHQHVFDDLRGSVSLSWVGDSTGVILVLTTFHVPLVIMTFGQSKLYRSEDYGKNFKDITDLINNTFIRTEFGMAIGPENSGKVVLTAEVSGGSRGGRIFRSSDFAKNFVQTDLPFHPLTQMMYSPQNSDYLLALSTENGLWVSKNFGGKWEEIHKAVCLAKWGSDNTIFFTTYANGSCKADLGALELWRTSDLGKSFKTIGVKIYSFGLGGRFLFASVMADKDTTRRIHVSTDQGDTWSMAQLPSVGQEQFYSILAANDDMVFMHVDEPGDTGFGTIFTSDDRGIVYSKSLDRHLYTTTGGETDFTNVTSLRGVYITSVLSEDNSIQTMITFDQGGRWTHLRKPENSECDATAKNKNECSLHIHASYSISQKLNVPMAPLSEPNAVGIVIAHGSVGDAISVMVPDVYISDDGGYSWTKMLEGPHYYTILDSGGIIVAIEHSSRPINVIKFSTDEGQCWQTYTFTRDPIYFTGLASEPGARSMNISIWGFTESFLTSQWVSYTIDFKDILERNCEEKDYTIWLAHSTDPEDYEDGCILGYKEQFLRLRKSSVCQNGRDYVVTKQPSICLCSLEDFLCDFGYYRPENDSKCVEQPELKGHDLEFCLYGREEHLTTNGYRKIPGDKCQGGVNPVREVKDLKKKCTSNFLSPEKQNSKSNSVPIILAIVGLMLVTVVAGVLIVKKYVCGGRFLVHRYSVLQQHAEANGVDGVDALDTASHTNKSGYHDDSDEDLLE
Method: A. Ovarian cancer cells were transfected with sortilin siRNA (siSortilin) for 24 hrs and then incubated with KBB106. Accumulation of KBB106 was monitored by the released of fluorescent Doxorubicin as a function of time. B. Ovarian cancer cells were incubated with KBB106 in the presence or absence of sortilin ligand (Katana peptide, progranulin). KBB106 accumulation was estimated by the released of fluorescent Doxorubicin.
The uptake of the Katana conjugate is increased in cells expressing the sortilin receptor.

[8] = test system: SKOV3 ovarian cancer cells; test: SKOV3 ovarian subcutaneous tumors (KBB106); settings: KBB106 18 mg/kg/week
Method: 26A. Mice were implanted in the flank with SKOV3 ovarian cancer cells. When tumors reached a volume of about 150 mm^3, mice were treated with KBB106 (18 mg/kg/week) as indicated by the arrows. […] 26B. Body weight of mice was monitored during the treatments.
as §4

[9] = Homo sapiens, SK-MEL-28 (Skin), Table 4, 2 or 3 days
[10] = Homo sapiens, A-375 (Skin), Table 4, 2 or 3 days

Compound	pIC50 ([1]; Table 4, 2 or 3 days)	pIC50 ([2]; Homo sapiens, MDA-MB-231)	pIC50 [3, 9]	pIC50 (A-375 skin cancer cells; [10])	tumor volume decrease compared to the vehicle group [4]	further results
COc1cccc2c1C(=O)c1c(O)c3c(c(O)c1C2=O)C[C@@](O)(C(=O)CO)C[C@@H]3O[C@H]1C[C@H](N)[C@H](O)[C@H](C)O1 [Doxorubicin, doxorubicin]	7.13	8.01	7.10	7.93	43%	
CCCC[C@H](NC(=O)[C@H](CC(N)=O)NC(=O)[C@H](CCCNC(=N)N)NC(=O)[C@@H](NC(=O)CNC(=O)[C@H](C)NC(=O)[C@H](CCCCNC(=O)CC(C)(C)CC(=O)Oc1ccc(/C=C/C(=O)CC(=O)/C=C/c2ccc(O)c(OC)c2)cc1OC)NC(=O)[C@H](C)NC(=O)[C@H](CCCNC(=N)N)NC(=O)[C@@H](NC(=O)CNC(C)=O)C(C)C)C(C)C)C(=O)N[C@@H](Cc1ccccc1)C(=O)N[C@@H](CCCCNC(=O)CC(C)(C)CC(=O)Oc1ccc(/C=C/C(=O)CC(=O)/C=C/c2ccc(O)c(OC)c2)cc1OC)C(=O)N[C@@H](CO)C(=O)N[C@@H](CCC(=O)O)C(=O)N[C@@H](CO)C(=O)N[C@@H](Cc1ccc(O)cc1)C(=O)O [KBC106, Acetyl-GVRAK(curcumin)AGVRN(Nle)FK(curcumin)SESY] (Ac-GVRAK(X2)AGVRN[Nle]FK(X2)SESY-OH; C-terminus assumed)						pIC50 ([1]; Table 6): 5.82; pIC50 ([2]; MDA-MB231 (Triple negative), Table 6, 72 hrs): 6.87; pIC50 ([3]; SK-MEL-28, Table 6): 6.61; pIC50 (A-375 skin cancer cells; A-375, Table 6): 6.49; pIC50 [5]: 6.00; pIC50 [6]: 5.89; pIC50 [7]: 5.44
CCCC[C@H](NC(=O)[C@H](CC(N)=O)NC(=O)[C@H](CCCNC(=N)N)NC(=O)[C@@H](NC(=O)CNC(=O)[C@H](C)NC(=O)[C@H](CCCCNC(=O)CC(C)(C)CC(=O)OCC(=O)[C@]1(O)Cc2c(O)c3c(c(O)c2[C@@H](O[C@H]2C[C@H](N)[C@H](O)[C@H](C)O2)C1)C(=O)c1c(OC)cccc1C3=O)NC(=O)[C@H](C)NC(=O)[C@H](CCCNC(=N)N)NC(=O)[C@@H](NC(=O)CNC(C)=O)C(C)C)C(C)C)C(=O)N[C@@H](Cc1ccccc1)C(=O)N[C@@H](CCCCNC(=O)CC(C)(C)CC(=O)OCC(=O)[C@]1(O)Cc2c(O)c3c(c(O)c2[C@@H](O[C@H]2C[C@H](N)[C@H](O)[C@H](C)O2)C1)C(=O)c1c(OC)cccc1C3=O)C(=O)N[C@@H](CO)C(=O)N[C@@H](CCC(=O)O)C(=O)N[C@@H](CO)C(=O)N[C@@H](Cc1ccc(O)cc1)C(=O)O [KBB-106, Acetyl-GVRAK(doxorubicin)AGVRN(Nle)FK(doxorubicin)SESY] (Ac-GVRAK(X3)AGVRN[Nle]FK(X3)SESY-OH; C-terminus assumed)					97%	uptake in cells where sortilin expression was reduced (sortilin): reduced; effect on body weight [8]: little effect on the body weight; progression of SKOV3 xenograft tumors [8]: significantly decreased compared to the control group
CO[C@H]1C(=O)[C@]2(C)[C@@H](OC)C[C@H]3OC[C@@]3(OC(C)=O)[C@H]2[C@H](OC(=O)c2ccccc2)[C@]2(O)C[C@H](OC(=O)[C@H](O)[C@@H](NC(=O)OC(C)(C)C)c3ccccc3)C(C)=C1C2(C)C [Cabazitaxel, cabazitaxel]	9.18	9.36	9.92	9.47		
